Columns and labels:
[1] = molecular target: Beta-2 adrenergic receptor (Homo sapiens, UniProt P07550); experiment: Binding affinity for clone human Beta-2 adrenergic receptor from CHO cell membranes in the presence of I-iodocyanopindolol
[2] = molecular target: Beta-1 adrenergic receptor (Homo sapiens, UniProt P08588); experiment: Binding affinity for cloned human Beta-1 adrenergic receptor expressed in CHO cells, tested in the presence of I-iodocyanopindolol.; format: cell-based
[3] = molecular target: T1, Beta-3 adrenergic receptor (Homo sapiens, UniProt P13945); experiment: Tested in vitro for its ability to stimulate increase in cAMP in CHO cells expressing the cloned human beta-3 adrenergic receptor; format: functional, cell-based
Target sequence in this assay (P13945 whole entry): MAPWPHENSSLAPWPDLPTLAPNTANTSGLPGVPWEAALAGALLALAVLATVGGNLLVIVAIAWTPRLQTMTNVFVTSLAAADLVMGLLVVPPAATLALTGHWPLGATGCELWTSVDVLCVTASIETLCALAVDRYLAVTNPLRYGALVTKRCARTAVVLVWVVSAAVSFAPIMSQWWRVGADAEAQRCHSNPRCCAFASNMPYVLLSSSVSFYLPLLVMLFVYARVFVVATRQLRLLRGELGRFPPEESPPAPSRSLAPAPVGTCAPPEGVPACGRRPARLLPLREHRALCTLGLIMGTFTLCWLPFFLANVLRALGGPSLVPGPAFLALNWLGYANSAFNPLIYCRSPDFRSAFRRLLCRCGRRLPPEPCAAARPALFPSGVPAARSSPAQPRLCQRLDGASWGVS

[4] = molecular target: T1, Beta-3 adrenergic receptor; experiment: Tested for Beta3 adrenergic receptor agonist activity by its ability to stimulate adenylyl cyclase activation as % of the maximal stimulation with isoproterenol; format: functional
Target sequence in this assay (P13945 whole entry, looked up): as the sequence (P13945 whole entry) above

[5] = The half life was determined; format: ADME, organism-based, Canis lupus familiaris; settings: dog, in vivo
[6] = Oral bioavailability in dog; format: ADME, organism-based, Canis lupus familiaris; settings: in vivo
Monkey [7] = experiment: Effective dose that produced hyperglycerolemia in anesthetized rhesus monkeys; format: functional; settings: Cercopithecidae, in Macaca mulatta
[8] = The compound was tested for half life in dog; format: ADME, organism-based, Canis lupus familiaris; settings: in vivo
Monkey [9] = experiment: Compound was tested for separation between lipolytic potency and tachycardia, as heart rate, effect was determined at highest dose of 10 mg/kg in rhesus monkeys; format: functional, Cercopithecidae

Chain of Beta-2 adrenergic receptor (P07550 whole entry): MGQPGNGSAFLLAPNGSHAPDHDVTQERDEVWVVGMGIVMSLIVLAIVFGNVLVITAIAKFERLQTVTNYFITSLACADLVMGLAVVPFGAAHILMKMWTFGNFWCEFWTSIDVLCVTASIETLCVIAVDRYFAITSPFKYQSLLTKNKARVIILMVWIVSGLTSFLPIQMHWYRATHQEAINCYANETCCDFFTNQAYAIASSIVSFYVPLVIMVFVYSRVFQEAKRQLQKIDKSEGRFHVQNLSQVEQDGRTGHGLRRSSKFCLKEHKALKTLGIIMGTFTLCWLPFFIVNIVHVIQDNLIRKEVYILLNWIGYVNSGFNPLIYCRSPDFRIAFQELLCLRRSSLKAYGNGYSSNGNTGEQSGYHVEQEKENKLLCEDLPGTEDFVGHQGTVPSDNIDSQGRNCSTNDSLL
Chain of Beta-1 adrenergic receptor (P08588 whole entry): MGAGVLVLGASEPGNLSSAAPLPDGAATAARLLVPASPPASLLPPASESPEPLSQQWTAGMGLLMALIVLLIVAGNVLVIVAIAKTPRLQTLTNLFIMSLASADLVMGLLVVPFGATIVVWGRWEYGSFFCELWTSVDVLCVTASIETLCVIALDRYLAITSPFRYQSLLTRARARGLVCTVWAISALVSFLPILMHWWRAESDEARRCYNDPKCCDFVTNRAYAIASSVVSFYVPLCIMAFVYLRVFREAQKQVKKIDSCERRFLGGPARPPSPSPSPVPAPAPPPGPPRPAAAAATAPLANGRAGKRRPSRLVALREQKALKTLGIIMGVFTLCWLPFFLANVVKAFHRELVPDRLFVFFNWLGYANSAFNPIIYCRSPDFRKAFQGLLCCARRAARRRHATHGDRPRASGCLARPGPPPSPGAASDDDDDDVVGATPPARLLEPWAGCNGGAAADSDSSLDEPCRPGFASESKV

SMILES	IC50 [1]	IC50 [2]	EC50 [3]	Activation [4]	half-life [5]	bioavailability ([6]; read-out: Activity)	bioavailability [6]	half-life [8]	ED50 (Monkey [7])	Heart rate (Monkey [9])
O=S(=O)(Nc1ccc(CCNC[C@H](O)c2cccnc2)cc1)c1ccc(-n2ncc(COc3ccc(OC(F)(F)F)cc3)n2)cc1	620 nM	6200 nM	14 nM	75%	–	–	–	–	–	–
O=S(=O)(Nc1ccc(CCNC[C@H](O)c2cccnc2)cc1)c1ccc(-n2ncc(Cc3cccc(F)c3)n2)cc1	380 nM	3000 nM	6.4 nM	87%	–	–	–	–	–	–
O=S(=O)(Nc1ccc(CCNC[C@H](O)c2cccnc2)cc1)c1ccc(-n2ncc(Cc3ccc(F)c(F)c3)n2)cc1	1000 nM	2000 nM	7.2 nM	86%	4 h	38%	–	–	–	–
O=S(=O)(Nc1ccc(CCNC[C@H](O)c2cccnc2)cc1)c1ccc(-n2ncc(Cc3c(F)cc(F)cc3F)n2)cc1	8800 nM	10000 nM	48 nM	83%	–	–	–	–	–	–
CCCCCCNC(=O)Nc1ccc(S(=O)(=O)Nc2ccc(CCNC[C@H](O)c3cccnc3)cc2)cc1	–	–	–	–	–	–	< 1%	–	–	–
O=S(=O)(Nc1ccc(CCNC[C@H](O)c2cccnc2)cc1)c1ccc(-n2ncc(Cc3ccc(OC(F)(F)F)cc3)n2)cc1	860 nM	2600 nM	4.1 nM	91%	–	–	–	–	–	–
O=S(=O)(Nc1ccc(CCNC[C@H](O)c2cccnc2)cc1)c1ccc(-n2ncc(COc3ccc(C(F)(F)F)cc3)n2)cc1	730 nM	920 nM	11 nM	72%	–	–	–	–	–	–
O=S(=O)(Nc1ccc(CCNC[C@H](O)c2cccnc2)cc1)c1ccc(-n2ncc(Cc3c(F)cccc3F)n2)cc1	5000 nM	28000 nM	24 nM	84%	–	–	–	–	–	–
COc1ccc(-c2cnn(-c3ccc(S(=O)(=O)Nc4ccc(CCNC[C@H](O)c5cccnc5)cc4)cc3)n2)cc1F	2500 nM	5600 nM	22 nM	80%	–	–	–	–	–	–
O=S(=O)(Nc1ccc(CCNC[C@H](O)c2cccnc2)cc1)c1ccc(-n2ncc(Cc3ccc(C(F)(F)F)cc3)n2)cc1	4700 nM	20000 nM	3.1 nM	85%	–	25%	–	6 h	0.36 mg/kg	<5%
O=S(=O)(Nc1ccc(CCNC[C@H](O)c2cccnc2)cc1)c1ccc(-n2ncc(COc3ccc(F)c(F)c3)n2)cc1	690 nM	930 nM	10 nM	63%	–	–	–	–	–	–
CCCCCCn1ccn(-c2ccc(S(=O)(=O)Nc3ccc(CCNC[C@H](O)c4cccnc4)cc3)cc2)c1=O [L-764646]	–	–	–	–	–	–	7%	–	–	–

Continued, in another order:

IC50 [1]	IC50 [2]	EC50 [3]	Activation [4]	half-life [5]	bioavailability ([6]; read-out: Activity)	bioavailability [6]	half-life [8]	SMILES	ED50 (Monkey [7])	Heart rate (Monkey [9])
780 nM	2500 nM	14 nM	75%	–	–	–	–	O=S(=O)(Nc1ccc(CCNC[C@H](O)c2cccnc2)cc1)c1ccc(-n2ncc(Cc3ccc(F)cc3)n2)cc1	–	–
1600 nM	1300 nM	18 nM	84%	–	–	–	–	O=S(=O)(Nc1ccc(CCNC[C@H](O)c2cccnc2)cc1)c1ccc(-n2ncc(-c3ccc(OC(F)(F)F)cc3)n2)cc1	–	–
1300 nM	2600 nM	14 nM	82%	–	–	–	–	O=S(=O)(Nc1ccc(CCNC[C@H](O)c2cccnc2)cc1)c1ccc(-n2ncc(-c3ccc(F)c(F)c3)n2)cc1	–	–
8800 nM	8700 nM	52 nM	89%	–	–	–	–	O=S(=O)(Nc1ccc(CCNC[C@H](O)c2cccnc2)cc1)c1ccc(-n2ncc(-c3cccc(F)c3)n2)cc1	–	–
–	–	3.3 nM	–	–	–	–	–	O=S(=O)(Nc1ccc(CCNC[C@H](O)c2cccnc2)cc1)c1ccc(-n2ncc(C(O)c3ccc(F)cc3)n2)cc1 (stereo partly specified)	–	–
21000 nM	21000 nM	14 nM	90%	15 h	–	18%	–	O=S(=O)(Nc1ccc(CCNC[C@H](O)c2cccnc2)cc1)c1ccc(-n2ncc(-c3ccc(C(F)(F)F)cc3)n2)cc1	–	–
9300 nM	40000 nM	24 nM	91%	–	–	–	–	O=S(=O)(Nc1ccc(CCNC[C@H](O)c2cccnc2)cc1)c1ccc(-n2ncc(-c3ccc(F)cc3)n2)cc1	–	–
–	–	6.4 nM	–	–	–	–	–	O=C(c1ccc(F)cc1)c1cnn(-c2ccc(S(=O)(=O)Nc3ccc(CCNC[C@H](O)c4cccnc4)cc3)cc2)n1	–	–

From ChEMBL document CHEMBL1133315, “Human beta3-adrenergic receptor agonists containing 1,2,3-triazole-substituted benzenesulfonamides” (Bioorg Med Chem Lett, 2000)
